The text below walks through data of ChEMBL document CHEMBL1139297, “Synthesis and stereochemical effects of pyrrolidinyl-acetylenic thieno[3,2-d]pyrimidines as EGFR and ErbB-2 inhibitors” (Bioorg Med Chem Lett, 2009).

In one assay the test system is BT-474. Briefly: Antiproliferative activity against human BT474 cells overexpressing ERBb2 after 3 days by methylene blue staining. The settings on record: BT-474, 72 h. The assay is classed as functional, cell-based.
For a further assay, the system named is HN5. Briefly: Antiproliferative activity against human HN5 cells overexpressing EGFR after 3 days by methylene blue staining. The settings on record: HN5, 72 h.
For another assay, the system named is HFF. As to the kind of experiment: Antiproliferative activity against human HFF cells after 3 days by methylene blue staining. The settings on record: 72 h.
Assay [1] concerns the target T1, Receptor tyrosine-protein kinase erbB-2 (Homo sapiens, UniProt P04626). As to the kind of experiment: Inhibition of ERBb2 by HTRF assay. (Time-resolved FRET reads energy transfer from a long-lived donor to a nearby acceptor.)
The target in assay [2] is T2, Epidermal growth factor receptor (Homo sapiens, UniProt P00533). Briefly: Inhibition of EGFR by HTRF assay.
T2 sequence (P00533 whole entry): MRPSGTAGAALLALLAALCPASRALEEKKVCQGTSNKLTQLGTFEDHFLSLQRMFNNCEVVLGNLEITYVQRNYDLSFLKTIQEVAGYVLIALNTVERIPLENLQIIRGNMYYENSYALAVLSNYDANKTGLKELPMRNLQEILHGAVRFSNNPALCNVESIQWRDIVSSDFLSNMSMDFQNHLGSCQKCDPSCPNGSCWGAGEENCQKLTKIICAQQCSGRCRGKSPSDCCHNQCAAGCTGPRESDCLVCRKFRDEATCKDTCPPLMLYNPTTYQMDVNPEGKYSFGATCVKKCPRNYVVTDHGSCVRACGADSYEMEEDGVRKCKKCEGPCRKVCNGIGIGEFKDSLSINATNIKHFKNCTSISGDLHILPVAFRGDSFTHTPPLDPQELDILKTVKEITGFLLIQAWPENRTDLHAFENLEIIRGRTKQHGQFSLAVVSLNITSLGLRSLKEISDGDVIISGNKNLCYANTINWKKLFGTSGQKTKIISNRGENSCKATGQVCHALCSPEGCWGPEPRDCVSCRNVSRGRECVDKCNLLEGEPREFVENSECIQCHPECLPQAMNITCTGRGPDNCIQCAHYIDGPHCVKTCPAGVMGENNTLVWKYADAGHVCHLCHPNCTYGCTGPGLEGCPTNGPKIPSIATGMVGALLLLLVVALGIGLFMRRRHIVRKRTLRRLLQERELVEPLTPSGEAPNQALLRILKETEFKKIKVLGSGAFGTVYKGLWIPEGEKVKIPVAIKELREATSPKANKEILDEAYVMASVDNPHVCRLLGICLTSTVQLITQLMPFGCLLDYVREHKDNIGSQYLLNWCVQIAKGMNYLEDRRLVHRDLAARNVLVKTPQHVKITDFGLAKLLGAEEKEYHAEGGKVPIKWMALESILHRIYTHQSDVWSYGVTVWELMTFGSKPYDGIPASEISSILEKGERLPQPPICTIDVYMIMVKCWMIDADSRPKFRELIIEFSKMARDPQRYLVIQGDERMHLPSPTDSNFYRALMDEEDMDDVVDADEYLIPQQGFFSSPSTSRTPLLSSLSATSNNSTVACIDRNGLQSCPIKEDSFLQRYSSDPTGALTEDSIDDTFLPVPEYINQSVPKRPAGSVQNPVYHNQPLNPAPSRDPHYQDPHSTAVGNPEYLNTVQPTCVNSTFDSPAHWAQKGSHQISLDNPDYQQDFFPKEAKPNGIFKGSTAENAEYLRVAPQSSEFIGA
The target in assay [3] is T2, Epidermal growth factor receptor. As to the kind of experiment: Inhibition of EGFR by scintillation proximity assay.
Assay [4] addresses T1, Receptor tyrosine-protein kinase erbB-2. As to the kind of experiment: Inhibition of ERBb2 by scintillation proximity assay.

Structures are written as SMILES.

One may read the EC50 as the concentration needed to bring the measured effect to its halfway point. High values mean lower potency in that assay, low ones higher potency in that assay. What is called IC50 is the concentration needed to halve the response being measured. Read a low IC50 as greater potency in that assay.

T1 sequence (P04626 whole entry): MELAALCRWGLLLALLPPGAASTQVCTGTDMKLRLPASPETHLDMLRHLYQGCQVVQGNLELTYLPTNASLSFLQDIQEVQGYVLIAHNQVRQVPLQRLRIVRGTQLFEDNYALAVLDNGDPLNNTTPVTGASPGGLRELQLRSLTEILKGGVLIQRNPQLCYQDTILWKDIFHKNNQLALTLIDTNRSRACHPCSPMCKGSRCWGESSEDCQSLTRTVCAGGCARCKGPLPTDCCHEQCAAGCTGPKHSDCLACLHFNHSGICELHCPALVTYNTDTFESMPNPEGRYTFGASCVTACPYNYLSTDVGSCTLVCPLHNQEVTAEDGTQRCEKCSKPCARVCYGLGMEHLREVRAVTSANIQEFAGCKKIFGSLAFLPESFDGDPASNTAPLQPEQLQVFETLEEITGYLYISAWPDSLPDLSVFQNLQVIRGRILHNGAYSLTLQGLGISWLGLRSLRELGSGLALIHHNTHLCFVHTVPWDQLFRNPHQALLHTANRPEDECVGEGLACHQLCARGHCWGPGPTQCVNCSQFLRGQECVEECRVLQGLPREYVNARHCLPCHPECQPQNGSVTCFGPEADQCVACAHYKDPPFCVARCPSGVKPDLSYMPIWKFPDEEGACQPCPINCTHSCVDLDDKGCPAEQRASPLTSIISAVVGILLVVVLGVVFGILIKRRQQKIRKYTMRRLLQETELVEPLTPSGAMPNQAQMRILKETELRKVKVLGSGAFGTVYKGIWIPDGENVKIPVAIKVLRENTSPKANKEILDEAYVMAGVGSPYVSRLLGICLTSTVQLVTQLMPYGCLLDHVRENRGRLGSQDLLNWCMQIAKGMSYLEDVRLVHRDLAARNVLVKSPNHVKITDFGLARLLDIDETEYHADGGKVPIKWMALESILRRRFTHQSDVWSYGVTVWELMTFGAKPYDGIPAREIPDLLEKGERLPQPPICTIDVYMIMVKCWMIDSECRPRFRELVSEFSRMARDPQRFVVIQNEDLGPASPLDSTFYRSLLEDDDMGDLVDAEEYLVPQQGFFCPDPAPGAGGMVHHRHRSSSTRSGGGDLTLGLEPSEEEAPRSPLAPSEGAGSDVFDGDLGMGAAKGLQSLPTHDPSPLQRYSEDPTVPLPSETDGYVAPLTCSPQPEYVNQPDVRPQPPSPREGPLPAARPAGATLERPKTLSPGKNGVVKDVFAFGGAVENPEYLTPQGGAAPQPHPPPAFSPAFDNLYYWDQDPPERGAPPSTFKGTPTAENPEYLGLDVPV

`CCNC(=O)O[C@H]1CN[C@H](C#Cc2cc3ncnc(Nc4ccc(OCc5cccc(F)c5)c(Cl)c4)c3s2)C1` [GSK-192082A]: the EC50 with BT-474 came out at 0.03 µM; with HN5, 0.095 µM; in the assay with HFF, 4.2 µM.
`O=C(O[C@H]1CN[C@@H](C#Cc2cc3ncnc(Nc4ccc(OCc5cccc(F)c5)c(Cl)c4)c3s2)C1)N1CCOCC1`: in the assay on BT-474, the EC50 came to 0.12 µM.
The same measure, in the same setting: next, `CS(=O)(=O)CCNCc1ccc(-c2ccc3ncnc(Nc4ccc(OCc5cccc(F)c5)c(Cl)c4)c3c2)o1` [LAPATINIB DITOSYLATE]: 0.02 µM.
For `CCN(C)C(=O)O[C@H]1CN[C@H](C#Cc2cc3ncnc(Nc4ccc(OCc5cccc(F)c5)c(Cl)c4)c3s2)C1`, the EC50 in the assay with BT-474 is 0.09 µM; with HN5, 0.24 µM; in the assay with HFF, 3 µM. Further, the IC50 came out at 0.032 µM in assay [1] and 0.05 µM in assay [2].
For the compound `CN(C)C(=O)O[C@@H]1CN[C@H](C#Cc2cc3ncnc(Nc4ccc(OCc5cccc(F)c5)c(Cl)c4)c3s2)C1`, in the assay with BT-474, the EC50 was found to be 0.23 µM. This counts as sub-micromolar.
Regarding `CCNC(=O)O[C@@H]1CN[C@H](C#Cc2cc3ncnc(Nc4ccc(OCc5cccc(F)c5)c(Cl)c4)c3s2)C1`, a half-maximal response with BT-474 (EC50) required 0.13 µM.
Compound `CCNC(=O)O[C@@H]1CN[C@@H](C#Cc2cc3ncnc(Nc4ccc(OCc5cccc(F)c5)c(Cl)c4)c3s2)C1` yielded an EC50 in the assay with BT-474 of 0.06 µM. Further, in assay [2], the IC50 is 0.05 µM.
Consider `C=CC(=O)Nc1cc2c(Nc3ccc(F)c(Cl)c3)ncnc2cc1OCCCN1CCOCC1` [CANERTINIB], for which the figures for the EC50 in the assay on BT-474 and with HN5 were 0.01 µM and 0.05 µM, respectively.
On to `O=C(O[C@H]1CN[C@H](C#Cc2cc3ncnc(Nc4ccc(OCc5cccc(F)c5)c(Cl)c4)c3s2)C1)N1CCCC1`, for which the EC50 in the assay on BT-474 came to 0.06 µM; in the assay on HN5, 0.12 µM; in the assay on HFF, 3.5 µM. The IC50 in assay [3] was found to be 0.099 µM; in assay [4] it was 0.032 µM.
Compound `CN(C)C(=O)O[C@H]1CN[C@@H](C#Cc2cc3ncnc(Nc4ccc(OCc5cccc(F)c5)c(Cl)c4)c3s2)C1` returned an EC50 in the assay with BT-474 of 0.01 µM.
Same read-out and setting: next, `O=C(O[C@@H]1CN[C@@H](C#Cc2cc3ncnc(Nc4ccc(OCc5cccc(F)c5)c(Cl)c4)c3s2)C1)N1CCOCC1`: 0.05 µM.
Take `O=C(O[C@H]1CN[C@H](C#Cc2cc3ncnc(Nc4ccc(OCc5cccc(F)c5)c(Cl)c4)c3s2)C1)N1CCOCC1` [GW869810X]: the EC50 in the assay on BT-474 stood at 0.03 µM; in the assay with HFF, 4.9 µM.
`CN(C)C(=O)O[C@@H]1CN[C@@H](C#Cc2cc3ncnc(Nc4ccc(OCc5cccc(F)c5)c(Cl)c4)c3s2)C1` [GSK-238063A] registered an EC50 in the assay on BT-474 of 0.03 µM.
The compound `O=C(O[C@@H]1CN[C@H](C#Cc2cc3ncnc(Nc4ccc(OCc5cccc(F)c5)c(Cl)c4)c3s2)C1)N1CCOCC1` had an EC50 in the assay on BT-474 of 0.14 µM.
`CS(=O)(=O)CCNC(=O)O[C@H]1CN[C@H](C#Cc2cc3ncnc(Nc4ccc(OCc5cccc(F)c5)c(Cl)c4)c3s2)C1`: the EC50 stood at 0.29 µM in the assay on BT-474, 0.03 µM with HN5 and 8.2 µM with HFF. The values for the IC50 in assay [1] and in assay [2] were 0.032 µM and 0.04 µM, respectively.
Take `CNC(=O)O[C@H]1CN[C@H](C#Cc2cc3ncnc(Nc4ccc(OCc5cccc(F)c5)c(Cl)c4)c3s2)C1`: the EC50 in the assay with BT-474 was determined as 0.03 µM; with HN5 it was 0.06 µM; with HFF it was 5 µM.
For `CCN(CC)C(=O)O[C@H]1CN[C@H](C#Cc2cc3ncnc(Nc4ccc(OCc5cccc(F)c5)c(Cl)c4)c3s2)C1`, the EC50 in the assay on BT-474 stood at 0.08 µM; in the assay with HN5, 0.25 µM; with HFF it was 4.3 µM. For the same compound, the figures for the IC50 in assay [3] and in assay [4] were 0.063 µM and 0.05 µM, respectively.
`O=C(O[C@H]1CN[C@H](C#Cc2cc3ncnc(Nc4ccc(OCc5cccc(F)c5)c(Cl)c4)c3s2)C1)N1CCNCC1`: the EC50 was found to be 0.1 µM in the assay on BT-474, 0.4 µM in the assay with HN5 and 5.1 µM in the assay with HFF. The IC50 in assay [1] came out at 0.02 µM; in assay [2], 0.063 µM.
Consider `CN(C)C(=O)O[C@H]1CN[C@H](C#Cc2cc3ncnc(Nc4ccc(OCc5cccc(F)c5)c(Cl)c4)c3s2)C1` [GSK-182497A], for which the EC50 in the assay with BT-474 worked out at 0.03 µM; in the assay on HFF it was 2.8 µM.
As for `NC(=O)O[C@H]1CN[C@H](C#Cc2cc3ncnc(Nc4ccc(OCc5cccc(F)c5)c(Cl)c4)c3s2)C1`, the EC50 in the assay on BT-474 was found to be 0.025 µM; with HN5, 0.1 µM; in the assay with HFF it was 5.5 µM. Besides, the IC50 was found to be 0.016 µM in assay [1] and 0.04 µM in assay [2].
Take `CCNC(=O)O[C@H]1CN[C@@H](C#Cc2cc3ncnc(Nc4ccc(OCc5cccc(F)c5)c(Cl)c4)c3s2)C1`: the EC50 with BT-474 was determined as 0.02 µM. In assay [2], this compound displayed an IC50 of 0.032 µM.
